Test results published in US11028078B2 (The Johns Hopkins University, priority 2011, dated 2021).
Read-outs that look alike come from different tables or passages of the source.

Experiments:
CYP3A4 = biological target: T1, CYP3A4 (Homo sapiens, UniProt P08684); assay: CYP3A4 enzyme assay (Vivid CYP3A4 Green Screening Kit); format: in vitro ADME; settings: for CYP3A4 Inhibition (compared to intracozanole at 1 μm): % enzyme inhibition at 1 μM drug / % enzyme inhibition at 1 μM itraconazole; for CYP3A4 inhibition in the initial screening: 1 μM
T1 construct: purchased ThermoFisher P2857; host or cells: baculosomes
T1 sequence (P08684 whole entry): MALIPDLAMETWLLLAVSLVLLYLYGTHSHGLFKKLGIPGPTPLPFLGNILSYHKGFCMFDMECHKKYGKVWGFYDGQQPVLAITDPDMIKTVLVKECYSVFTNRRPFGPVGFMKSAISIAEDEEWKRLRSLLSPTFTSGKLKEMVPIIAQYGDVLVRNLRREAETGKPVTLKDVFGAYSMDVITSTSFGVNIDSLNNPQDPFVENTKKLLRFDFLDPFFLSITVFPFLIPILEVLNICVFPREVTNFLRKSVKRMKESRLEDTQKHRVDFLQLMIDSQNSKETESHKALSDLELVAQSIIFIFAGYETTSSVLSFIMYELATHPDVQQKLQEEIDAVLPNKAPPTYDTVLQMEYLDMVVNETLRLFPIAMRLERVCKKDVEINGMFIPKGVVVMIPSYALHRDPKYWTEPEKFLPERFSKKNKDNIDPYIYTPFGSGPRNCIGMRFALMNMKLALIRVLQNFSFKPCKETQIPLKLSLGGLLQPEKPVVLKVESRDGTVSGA
Procedure: And CYP3A4 inhibition was initially determined using a cell-free fluorescence-based assay at a final concentration of 1 μM (Table 7).
CYP3A4 enzyme assay. CYP3A4 enzyme activity was tested using Vivid™ CYP3A4 Green Screening Kit (ThermoFisher, #P2857) using the manufacturer's protocol. Briefly, CYP3A4 baculosomes and drugs were incubated 10 min at 37° C. Then Vivid® Substrates were added and the fluorescence (ex/em:485/520) were read every 1 min for 60 minute.

HUVEC = HUVEC proliferation assay ([3H]thymidine incorporation); format: cell-based, human; settings: HUVEC; for IC50: Homo sapiens; for Proliferation (IC50/IC50 Itra): Table 7, relative to itraconazole
How it was run: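 Pooled HUVEC at passage eight or lower, grown in EGM-2 medium; proliferation measured by [3H]thymidine incorporation as in an earlier published protocol.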

[1] = 3H thymidine incorporation, in μM, read-out: Proliferation IC50
[2] = read-out: IC50 for inhibition of HUVEC proliferation

Row | SMILES | CYP3A4 Inhibition (compared to intracozanole at 1 μm) (CYP3A4) | IC50 (HUVEC; [1]) | CYP3A4 inhibition in the initial screening (CYP3A4) | Proliferation (IC50/IC50 Itra) (HUVEC) | IC50 (HUVEC; [2])
1 | CCC(C)n1ncn(-c2ccc(N3CCN(c4ccc(OC[C@@H]5CO[C@@](Cn6ccnc6)(c6ccc(Cl)cc6Cl)O5)cc4)CC3)cc2)c1=O (stereo partly drawn) [Compound 233, 4-(4-(4-(4-(((2S,4R)-2-((1H-imidazol-1-yl)methyl)-2-(2,4-dichlorophenyl)-1,3-dioxolan-4-yl)methoxy)phenyl)piperazin-1-yl)phenyl)-1-sec-butyl-1H-1,2,4-triazol-5(4H)-one] | 1.18 | 0.085 µM | – | – | –
2 | CCC(C)n1ncn(-c2ccc(N3CCN(c4ccc(OC[C@@H]5CO[C@@](Cn6cccn6)(c6ccc(Cl)cc6Cl)O5)cc4)CC3)cc2)c1=O (stereo partly drawn) [Compound 234, 4-(4-(4-(4-(((2S,4R)-2-((1H-pyrazol-1-yl)methyl)-2-(2,4-dichlorophenyl)-1,3-dioxolan-4-yl)methoxy)phenyl)piperazin-1-yl)phenyl)-1-sec-butyl-1H-1,2,4-triazol-5(4H)-one] | No inhibition | 0.307 µM | – | – | –
3 | CCC(C)n1ncn(-c2ccc(N3CCN(c4ccc(OC[C@@H]5CO[C@@](Cn6ccnc6C)(c6ccc(Cl)cc6Cl)O5)cc4)CC3)cc2)c1=O (stereo partly drawn) [Compound 235, 1-sec-butyl-4-(4-(4-(4-(((2S,4R)-2-(2,4-dichlorophenyl)-2-((2-methyl-1H-imidazol-1-yl)methyl)-1,3-dioxolan-4-yl)methoxy)phenyl)piperazin-1-yl)phenyl)-1H-1,2,4-triazol-5(4H)-one] | 0.85 | 0.173 µM | – | – | –
4 | CCC(C)n1ncn(-c2ccc(N3CCN(c4ccc(OC[C@@H]5CO[C@@](Cn6cnc(C)c6)(c6ccc(Cl)cc6Cl)O5)cc4)CC3)cc2)c1=O (stereo partly drawn) [Compound 238, 1-sec-butyl-4-(4-(4-(4-(((2S,4R)-2-(2,4-dichlorophenyl)-2-((4-methyl-H-imidazol-1-yl)methyl)-1,3-dioxolan-4-yl)methoxy)phenyl)piperazin-1-yl)phenyl)-1H-1,2,4-triazol-5(4H)-one] | 1.18 | 0.102 µM | – | – | –
5 | CCC(C)n1ncn(-c2ccc(N3CCN(c4ccc(OC[C@@H]5CO[C@@](Cn6cc(C(F)(F)F)nc6C)(c6ccc(Cl)cc6Cl)O5)cc4)CC3)cc2)c1=O (stereo partly drawn) [Compound 239, 1-(sec-butyl)-4-(4-(4-(4-(((2S,4R)-2-(2,4-dichlorophenyl)-2-((2-methyl-4-(trifluoromethyl)-1H-imidazol-1-yl)methyl)-1,3-dioxolan-4-yl)methoxy)phenyl)piperazin-1-yl)phenyl)-1H-1,2,4-triazol-5(4H)-one] | No inhibition | 0.441 µM | eliminated | – | –
6 | CCC(C)n1ncn(-c2ccc(N3CCN(c4ccc(OC[C@@H]5CO[C@@](Cn6cc(C)nc6C)(c6ccc(Cl)cc6Cl)O5)cc4)CC3)cc2)c1=O (stereo partly drawn) [Compound 240, 1-(sec-butyl)-4-(4-(4-(4-(((2S,4R)-2-(2,4-dichlorophenyl)-2-((2,4-dimethyl-1H-imidazol-1-yl)methyl)-1,3-dioxolan-4-yl)methoxy)phenyl)piperazin-1-yl)phenyl)-1H-1,2,4-triazol-5(4H)-one] | 0.45 | 0.492 µM | – | – | –
7 | CCC(C)n1ncn(-c2ccc(N3CCN(c4ccc(OC[C@@H]5CO[C@@](Cn6c(C)cnc6C)(c6ccc(Cl)cc6Cl)O5)cc4)CC3)cc2)c1=O (stereo partly drawn) [Compound 241, 1-(sec-butyl)-4-(4-(4-(4-(((2S,4R)-2-(2,4-dichlorophenyl)-2-((2,5-dimethyl-1H-imidazol-1-yl)methyl)-1,3-dioxolan-4-yl)methoxy)phenyl)piperazin-1-yl)phenyl)-1H-1,2,4-triazol-5(4H)-one] | 0.27 | 0.492 µM | – | 3.1 | –
8 | CCc1nccn1C[C@@]1(c2ccc(Cl)cc2Cl)OC[C@@H](COc2ccc(N3CCN(c4ccc(-n5cnn(C(C)CC)c5=O)cc4)CC3)cc2)O1 (stereo partly drawn) [Compound 243, 1-(sec-butyl)-4-(4-(4-(4-(((2S,4R)-2-(2,4-dichlorophenyl)-2-((2-ethyl-1H-imidazol-1-yl)methyl)-1,3-dioxolan-4-yl)methoxy)phenyl)piperazin-1-yl)phenyl)-1H-1,2,4-triazol-5(4H)-one] | 0.08 | 0.225 µM | – | – | –
9 | CCC(C)n1ncn(-c2ccc(N3CCN(c4ccc(OC[C@@H]5CO[C@@](Cn6ccnc6C(C)C)(c6ccc(Cl)cc6Cl)O5)cc4)CC3)cc2)c1=O (stereo partly drawn) [Compound 245, 1-sec-butyl-4-(4-(4-(4-(((2S,4R)-2-(2,4-dichlorophenyl)-2-((2-isopropyl-1H-imidazol-1-yl)methyl)-1,3-dioxolan-4-yl)methoxy)phenyl)piperazin-1-yl)phenyl)-1H-1,2,4-triazol-5(4H)-one] | 0.07 | 0.068 µM | – | 0.4 | –
10 | CCC(C)n1ncn(-c2ccc(N3CCN(c4ccc(OC[C@@H]5CO[C@@](Cn6ccnc6-c6ccccc6)(c6ccc(Cl)cc6Cl)O5)cc4)CC3)cc2)c1=O (stereo partly drawn) [Compound 246, 1-sec-butyl-4-(4-(4-(4-(((2S,4R)-2-(2,4-dichlorophenyl)-2-((2-phenyl-1H-imidazol-1-yl)methyl)-1,3-dioxolan-4-yl)methoxy)phenyl)piperazin-1-yl)phenyl)-1H-1,2,4-triazol-5(4H)-one] | 0.27 | 0.136 µM | – | – | –
11 | CCC(C)n1ncn(-c2ccc(N3CCN(c4ccc(OC[C@@H]5CO[C@@](Cn6ncnn6)(c6ccc(Cl)cc6Cl)O5)cc4)CC3)cc2)c1=O (stereo partly drawn) [Compound 249, 4-(4-(4-(4-(((2S,4R)-2-((2H-tetrazol-2-yl)methyl)-2-(2,4-dichlorophenyl)-1,3-dioxolan-4-yl)methoxy)phenyl)piperazin-1-yl)phenyl)-1-sec-butyl-1H-1,2,4-triazol-5(4H)-one] | 0.2 | 0.102 µM | – | 0.6 | –
12 | CCC(C)n1ncn(-c2ccc(N3CCN(c4ccc(OC[C@@H]5CO[C@@](Cn6cnc(C)n6)(c6ccc(Cl)cc6Cl)O5)cc4)CC3)cc2)c1=O (stereo partly drawn) [Compound 250, 1-sec-butyl-4-(4-(4-(4-(((2S,4R)-2-(2,4-dichlorophenyl)-2-((3-methyl-1H-1,2,4-triazol-1-yl)methyl)-1,3-dioxolan-4-yl)methoxy)phenyl)piperazin-1-yl)phenyl)-1H-1,2,4-triazol-5(4H)-one] | 0.36 | 0.272 µM | – | – | 0.27 µM
13 | CCC(C)n1ncn(-c2ccc(N3CCN(c4ccc(OC[C@@H]5CO[C@@](Cn6cnc(C(F)(F)F)n6)(c6ccc(Cl)cc6Cl)O5)cc4)CC3)cc2)c1=O (stereo partly drawn) [Compound 251, 1-sec-butyl-4-(4-(4-(4-(((2S,4R)-2-(2,4-dichlorophenyl)-2-((3-(trifluoromethyl)-1H-1,2,4-triazol-1-yl)methyl)-1,3-dioxolan-4-yl)methoxy)phenyl)piperazin-1-yl)phenyl)-1H-1,2,4-triazol-5(4H)-one] | No inhibition | 0.272 µM | eliminated CYP3A4 inhibition | – | 0.27 µM
14 | CCC(C)n1ncn(-c2ccc(N3CCN(c4ccc(OC[C@@H]5CO[C@@](Cn6nnnc6C)(c6ccc(Cl)cc6Cl)O5)cc4)CC3)cc2)c1=O (stereo partly drawn) [Compound 252, 1-sec-butyl-4-(4-(4-(4-(((2S,4R)-2-(2,4-dichlorophenyl)-2-((5-methyl-1H-tetrazol-1-yl)methyl)-1,3-dioxolan-4-yl)methoxy)phenyl)piperazin-1-yl)phenyl)-1H-1,2,4-triazol-5(4H)-one] | 0.08 | 0.101 µM | – | – | –
15 | CCC(C)n1ncn(-c2ccc(N3CCN(c4ccc(OC[C@@H]5CO[C@@](Cn6nnnc6-c6ccccc6)(c6ccc(Cl)cc6Cl)O5)cc4)CC3)cc2)c1=O (stereo partly drawn) [Compound 253, 1-sec-butyl-4-(4-(4-(4-(((2S,4R)-2-(2,4-dichlorophenyl)-2-((5-phenyl-1H-tetrazol-1-yl)methyl)-1,3-dioxolan-4-yl)methoxy)phenyl)piperazin-1-yl)phenyl)-1H-1,2,4-triazol-5(4H)-one] | 0.22 | 0.119 µM | – | – | –
16 | CCC(C)n1ncn(-c2ccc(N3CCN(c4ccc(OC[C@@H]5CO[C@@](CBr)(c6ccc(Cl)cc6Cl)O5)cc4)CC3)cc2)c1=O (stereo partly drawn) [Compound 257, 4-(4-(4-(4-(((2S,4R)-2-(bromomethyl)-2-(2,4-dichlorophenyl)-1,3-dioxolan-4-yl)methoxy)phenyl)piperazin-1-yl)phenyl)-1-sec-butyl-1H-1,2,4-triazol-5(4H)-one] | 0.03 | 0.512 µM | – | – | –
17 | CCC(C)n1ncn(-c2ccc(N3CCN(c4ccc(OC[C@@H]5CO[C@@](Cc6ccccc6)(c6ccc(Cl)cc6Cl)O5)cc4)CC3)cc2)c1=O (stereo partly drawn) [Compound 260, 4-(4-(4-(4-(((2R,4R)-2-benzyl-2-(2,4-dichlorophenyl)-1,3-dioxolan-4-yl)methoxy)phenyl)piperazin-1-yl)phenyl)-1-sec-butyl-1H-1,2,4-triazol-5(4H)-one] | No inhibition | – | – | – | –
18 | CCC(C)n1ncn(-c2ccc(N3CCN(c4ccc(OC[C@@H]5CO[C@@](CC6CCCC6)(c6ccc(Cl)cc6Cl)O5)cc4)CC3)cc2)c1=O (stereo partly drawn) [Compound 261, 1-sec-butyl-4-(4-(4-(4-(((2R,4R)-2-(cyclopentylmethyl)-2-(2,4-dichlorophenyl)-1,3-dioxolan-4-yl)methoxy)phenyl)piperazin-1-yl)phenyl)-1H-1,2,4-triazol-5(4H)-one] | No inhibition | 0.512 µM | – | – | –
